Reference: US20040192686A1, “Benzoazine mono-N-oxides and benzoazine 1,4 dioxides and compositions therefrom for the therapeutic use in cancer treatments” (Auckland Uniservices Limited, priority 2003, published 2004)
≈ marks a conversion by molar mass, not a printed value. Where two headings read alike, the source gives them in different places. Each block holds one compound with its values, some of them ahead of it.

What was measured:
[1] = Approximate solubility limit in Alpha MEM culture medium containing 5% fetal calf serum; format: physicochemical; conditions: dilution from DMSO stock solutions; for solubility: plasma or biological fluid, kinetic from dmso stock
[2] = system: HT29 colon carcinoma cells; assay: IC50 assay of potentiator alone, HT29 cells, 4 hr anoxic exposure, sulphorhodamine B staining; format: cell-based, human; conditions: cell density by sulphorhodamine B five days after washing out
HT29 cells [3] = assay: TPZ potentiation test: IC50 of TPZ with and without potentiator, anoxic HT29 cells; format: cell-based, human; conditions: 4 hr anoxic exposure of HT29 cells
[4] = system: hypoxic (radioresistant) cells in HT29 tumours; assay: HT29 tumour xenograft excision assay: clonogenic survivors 18 hr after radiation and drug; format: in vivo, mice; conditions: TPZ alone 0.133 mmol/kg i.p. 5 minutes after whole body radiation (20 Gy); HT29 xenografts; clonogenic survivors at 18 hr
Protocol: Animals with subcutaneous tumours (ca 300 mg) received whole body radiation (RAD; 20 Gy) to sterilise oxygenated tumour cells. Activity of drugs against the hypoxic survivors was determined by intraperitoneal administration of solutions in 5% DMSO/saline 5 min after radiation, using TPZ alone (133 μmol/kg) or in combination with SR 4317 (1000 μmol/kg). Tumours were excised 18 hr after treatment, dissociated enzymatically, and plated to determine the number of clonogenic survivors. Values are geometric means and error bars are standard errors of the mean. Horizontal lines show historical values for untreated controls and radiation only (solid lines are means, dashed lines are 95% confidence limits. p values were determined by one-way ANOVA using only data within this experiment.
The utility of SR 4317 as a potentiator of the hypoxic cytotoxicity of TPZ was assessed in an in vivo model (HT29 tumour xenografts) as illustrated in FIG. 7. In this experiment tumour response was determined by excising tumours 18 hr after treatment and quantifying the number of clonogenic survivors by plating in vitro. TPZ was administered at a sub-efficacious dose (0.133 mmol/kg), 5 minutes after whole body radiation (20 Gy). […] No significant cytotoxicity was observed when the two compounds were administered in the absence of irradiation, indicating lack of activity against aerobic cells in tumours (FIG. 7).

HT29 cells [5] = assay: Radiosensitisation of anoxic HT29 cells; format: cell-based, human; conditions: 0.6 mM of each agent; anoxic HT29 cells irradiated 5 min after drug addition
Protocol: Anoxic cell suspensions were irradiated 5 min after addition of pre-equilibrated anoxic drug solutions. Data are shown for duplicate determinations, and are fitted using a linear-quadratic model

[6] = system: HT29 human colon carcinoma cells; assay: Cytotoxicity (plating efficiency) in stirred single cell suspensions of HT29 cells, anoxic or aerobic
Excerpt: Cultures were maintained at <10 ppm O2 under a continuously-flowing stream of 5% CO2 in nitrogen and were sampled at intervals to determine plating efficiency.
Experimental conditions were as for FIG. 2, except that the gas phase was 5% CO2 in air. Values are means and error bars are ranges for duplicate cultures.
Drug exposure time was 1 hr. Error bars represent the range for duplicate determinations.

[7] = Homo sapiens, HT-29, 4 hr exposure under anoxic conditions
[8] = conc of potentiator 3 mM (compound 56: approximate, slight precipitation)

SMILES: [O-][n+]1nc(Cl)nc2cc(C(F)(F)F)ccc21 [Compound 142, 3-Chloro-6-trifluoromethyl-1,2,4-benzotriazine 1-Oxide]
melting point: 118 to 120 °C

SMILES: CC(C)(C)c1ccc2c(c1)nc(N)n[n+]2[O-] [Compound 153, 6-tert-Butyl-1,2,4-benzotriazin-3-amine 1-Oxide]
melting point: 209 to 212 °C

SMILES: CC(C)(C)c1ccc2c(c1)nc(Cl)n[n+]2[O-] [Compound 154, 6-tert-Butyl-3-chloro-1,2,4-benzotriazine 1-oxide]
melting point: 91 to 94 °C

SMILES: CC(C)(C)c1ccc2c(c1)nc(NCCN1CCOCC1)n[n+]2[O-] [Compound 157, 6-tert-Butyl-N-[2-(4-morpholinyl)ethyl]-1,2,4-benzotriazin-3-amine 1-Oxide]
melting point: 132 to 134 °C

SMILES: CC(C)(C)c1ccc2c(c1)nc(NCCN1CCCCC1)n[n+]2[O-] [Compound 158, 6-tert-Butyl-N-[2-(1-piperidinyl)ethyl]-1,2,4-benzotriazin-3-amine 1-Oxide]
melting point: 145 to 148 °C

SMILES: CCc1nc2cc(F)ccc2[n+]([O-])n1 [Compound 160, 3-Ethyl-6-fluoro-1,2,4-benzotriazine 1-oxide]
melting point: 122 to 124 °C

SMILES: Cc1cccc2nc(NCCN3CCOCC3)n[n+]([O-])c12 [Compound 163, 8-Methyl-N-[2-(4-morpholinyl)ethyl]-1,2,4-benzotriazin-3-amine 1-Oxide]
melting point: 168 to 170 °C

SMILES: Cc1cccc2nc(NCCN3C(C)CCCC3C)n[n+]([O-])c12 (stereo not drawn) [Compound 164, N-[2-(2,6-Dimethyl-1-piperidinyl)ethyl]-8-methyl-1,2,4-benzotriazin-3-amine 1-Oxide]
melting point: 169 to 171 °C

SMILES: Cc1cc2nc(NCCN3CCOCC3)n[n+]([O-])c2cc1C [Compound 167, 6,7-Dimethyl-N-[2-(4-morpholinyl)ethyl]-1,2,4-benzotriazi n-3-amine 1-Oxide]
melting point: 211 to 213 °C

SMILES: Nc1n[n+]([O-])c2ccccc2[n+]1[O-] [TPZ, tirapazamine, reference compound]
IC50 (HT29 cells [3]; Homo sapiens, HT-29, mean ± sem, n = 4, read-out: IC50 for TPZ alone): 6.8 µM
Killing of the (hypoxic) cells surviving radiation [4]: did not result in statistically significant killing

SMILES: Cc1ncc([N+](=O)[O-])n1CCO [metronidazole, reference compound]
Relative potency for radiosensitization of hypoxic HT29 cells (HT29 cells [5]): misonidazole>metronidazole=SR4317
Relative dose potency for potentiation of the hypoxic cytotoxicity of TPZ [6]: lower dose potency than SR 4317

SMILES: COCC(O)Cn1ccnc1[N+](=O)[O-] (stereo not drawn) [misonidazole, reference compound]
Relative potency for radiosensitization of hypoxic HT29 cells (HT29 cells [5]): misonidazole>metronidazole=SR4317
Relative dose potency for potentiation of the hypoxic cytotoxicity of TPZ ([6]; TPZ 30 μM, anoxic HT29 cells 5×10^5/ml, drug exposure 1 hr): lower dose potency than SR 4317

Continued, values first:

solubility [1]: 300 µM (≈ 60.4 µg/mL)
IC50 [2, 7]: > 300 µM
TPR (TPZ potentiation ratio) = TPZ IC50 without potentiator/TPZ IC50 with potentiator (HT29 cells [3]; conc of potentiator 0.2 mM): 1.9
SMILES: N#CCNc1nc2ccccc2[n+]([O-])n1 [Compound 25, 2-[(1-Oxido-1,2,4-benzotriazin-3-yl)amino]acetonitrile]

solubility [1]: 1000 µM (≈ 233 µg/mL)
IC50 [2, 7]: > 1000 µM
TPR (TPZ potentiation ratio) = TPZ IC50 without potentiator/TPZ IC50 with potentiator (HT29 cells [3]; conc of potentiator 1.0 mM): 13.9
SMILES: CN(C)CCNc1nc2ccccc2[n+]([O-])n1 [Compound 37, N^1,N^1-Dimethyl-N^2-(1-oxido-1,2,4-benzotriazin-3-yl)-1,2-ethanediamine]

Solubility limit [1]: 3000 µM (≈ 742 µg/mL)
IC50 ([2]; 4 hr exposure under anoxic conditions): 830 µM
TPR (TPZ potentiation ratio) = TPZ IC50 without potentiator/TPZ IC50 with potentiator (HT29 cells [3]; conc of potentiator 0.3 mM): 1.2
SMILES: CN(C)CCCNc1nc2ccccc2[n+]([O-])n1 [Compound 44, N^1-(1-Oxido-1,2,4-benzotriazin-3-yl)-N^3,N^3-dimethyl-1,3-propan diamin]

solubility [1]: 3000 µM (≈ 526 µg/mL)
IC50 [2, 7]: > 3000 µM
TPR (TPZ potentiation ratio) = TPZ IC50 without potentiator/TPZ IC50 with potentiator (HT29 cells [3]; [8]): 1.3
SMILES: CCc1nc2ccccc2[n+]([O-])n1 [Compound 56, 3-Ethyl-1,2,4-benzotriazine 1-oxide]

solubility [1]: 3000 µM (≈ 574 µg/mL)
IC50 [2, 7]: > 3000 µM
TPR (TPZ potentiation ratio) = TPZ IC50 without potentiator/TPZ IC50 with potentiator (HT29 cells [3]; [8]): 1.2
SMILES: [O-][n+]1nc(CCO)nc2ccccc21 [Compound 61, 3-(2-Hydroxyethyl)-1,2,4-benzotriazine 1-oxide]

solubility [1]: 300 µM (≈ 53.1 µg/mL)
IC50 [2, 7]: > 300 µM
TPR (TPZ potentiation ratio) = TPZ IC50 without potentiator/TPZ IC50 with potentiator (HT29 cells [3]; conc of potentiator 0.3 mM): 3.3
SMILES: COc1nc2ccccc2[n+]([O-])n1 [Compound 71, 3-Methoxy-1,2,4-benzotriazine 1-oxide]

solubility [1]: 3000 µM (≈ 658 µg/mL)
IC50 [2, 7]: 2300 µM
TPR (TPZ potentiation ratio) = TPZ IC50 without potentiator/TPZ IC50 with potentiator (HT29 cells [3]; conc of potentiator 1.0 mM): 6.1
SMILES: CNCCNc1nc2ccccc2[n+]([O-])n1 [Compound 130, N^1-Methyl-#f-(1-oxido-1,2,4-benzotriazin-3-yl)-1,2-ethanediamine]

melting point: 87 to 89 °C
SMILES: CC(C)c1ccc2c(c1)nc(NCCN(C)C)n[n+]2[O-] [Compound 147, N^1-(6-Isopropyl-1-oxido-1,2,4-benzotriazin-3-yl)-N^2,N^2-dimethyl-1,2-ethanediamine]

melting point: 60 to 62 °C
SMILES: CCN(CC)CCNc1nc2cc(C(C)C)ccc2[n+]([O-])n1 [Compound 148, N^1-(6-Isopropyl-1-oxido-1,2,4-benzotriazin-3-yl)-N^2,N^2-diethyl-1,2-ethanediamine]

melting point: 145 to 147 °C
SMILES: CC(C)c1ccc2c(c1)nc(NCCN1CCOCC1)n[n+]2[O-] [Compound 149, 6-Isopropyl-N-[2-(4-morpholinyl)ethyl]-1,2,4-benzotriazin-3-amine 1-Oxide]

melting point: 124 to 127 °C
SMILES: CC(C)c1ccc2c(c1)nc(NCCN1CCCCC1)n[n+]2[O-] [Compound 150, 6-Isopropyl-N-[2-(1-piperidinyl)ethyl]-1,2,4-benzotriazin-3-amine 1-Oxide]

melting point: 79 to 81 °C
SMILES: CCCN(CCC)CCNc1nc2cc(C(C)C)ccc2[n+]([O-])n1 [Compound 151, N^1-(6-Isopropyl-1-oxido-1,2,4-benzotriazin-3-yl)-N^2,N^2-dipropyl-1,2-ethanediamine]

melting point: 140 to 144 °C
SMILES: CN(C)CCNc1nc2cc(C(C)(C)C)ccc2[n+]([O-])n1 [Compound 155, N^1-(6-tert-Butyl-1-oxido-1,2,4-benzotriazin-3-yl)-N^2,N^2-dimethyl-1,2-ethanediamine]

melting point: 89 to 91 °C
SMILES: CCN(CC)CCNc1nc2cccc(C)c2[n+]([O-])n1 [Compound 162, N^1,N^1-Diethyl-N^2-(8-methyl-1-oxido-1,2,4-benzotriazin-3-yl)-1,2-ethanediamine]

melting point: 91 to 93 °C
SMILES: CCCN(CCC)CCNc1nc2cccc(C)c2[n+]([O-])n1 [Compound 165, N^1-(8-Methyl-1-oxido-1,2,4-benzotriazin-3-yl)-N^2,N^2-dipropyl-1,2-ethanediamine]

melting point: 130 to 132 °C
SMILES: CCN(CC)CCNc1nc2cc(C)c(C)cc2[n+]([O-])n1 [Compound 166, N^1-(6,7-Dimethyl-1-oxido-1,2,4-benzotriazin-3-yl)-N^2,N^2-diethyl-1,2-ethanediamine]
